Assay results from the NIST ThermoML archive (doi:10.1016/j.fluid.2008.04.002).
± gives the expanded uncertainty stated by the source.

Conditions: Liquid, Closed cell (Static) method

Row | Compound | vapor or sublimation pressure (263.43 K) [kPa] | vapor or sublimation pressure (273.32 K) [kPa] | vapor or sublimation pressure (283.22 K) [kPa] | vapor or sublimation pressure (288.3 K) [kPa] | vapor or sublimation pressure (293.29 K) [kPa] | vapor or sublimation pressure (313.31 K) [kPa] | vapor or sublimation pressure (333.32 K) [kPa] | vapor or sublimation pressure (353.2 K) [kPa] | vapor or sublimation pressure (253.65 K) [kPa] | vapor or sublimation pressure (258.46 K) [kPa] | vapor or sublimation pressure (263.45 K) [kPa] | vapor or sublimation pressure (268.33 K) [kPa] | vapor or sublimation pressure (273.29 K) [kPa] | vapor or sublimation pressure (278.19 K) [kPa] | vapor or sublimation pressure (283.25 K) [kPa] | vapor or sublimation pressure (288.2 K) [kPa] | vapor or sublimation pressure (290.22 K) [kPa] | vapor or sublimation pressure (291.22 K) [kPa] | vapor or sublimation pressure (292.22 K) [kPa]
1 | FCC(F)(F)F [1,1,1,2-tetrafluoroethane] | 195.7 ± 1 | 287.1 ± 1.2 | 407.2 ± 1.5 | 483.6 ± 1.7 | 566.3 ± 1.9 | 1014.7 ± 3.3 | 1680.4 ± 5.4 | 2636 ± 8.3 | – | – | – | – | – | – | – | – | – | – | –
2 | FC(F)(F)C(F)(F)F [hexafluoroethane] | 1415.3 ± 4.6 | 1862 ± 6 | 2392 ± 7.6 | 2697.6 ± 8.6 | – | – | – | – | 1062.9 ± 2 | 1226.4 ± 2.2 | 1415.3 ± 2.5 | 1621.1 ± 2.8 | 1850 ± 3.2 | 2100.6 ± 3.6 | 2385.8 ± 4.1 | 2697.6 ± 4.6 | 2832.9 ± 4.8 | 2903.4 ± 5 | 2976.2 ± 5.1
